Read-outs that look alike come from different tables or passages of the source.
Tests used:
[1] = tested on: HCV replication complex (RC); experiment: In vitro HCV replication assay with cytoplasmic lysates of SgPC2 cells; type: cell-based, hepatitis C virus; conditions: for effect on the suppression of in vitro HCV replication by H2O2: pretreatment of SgPC2 cells before H2O2
Procedure: In vitro replication assay was carried out according to the protocol of Ali et al., with slight modifications. Briefly, SgPC2 cells were grown to approximately 50-60% confluence in 100-mm dishes. Then, […], and cytoplasmic lysates were prepared by gently lysing the cells in the incomplete replication buffer (prepared without dithiothreitol) immediately after treating the cells with lysolecithin-containing washing solution (150 mM sucrose, 30 mM Hepes, pH 7.4, 33 mM ammonium chloride, 7 mM KCl, 4.5 mM magnesium acetate, 250 μg/ml lysolecithin) for 1-2 min. Twenty to 50 μCi of [α-^32P]CTP (3000 Ci/mmol) and 1-2 μg of actinomycin D were added to 70 μl of these cytoplasmic lysates, and the replication reaction was allowed to proceed for 1 h at 30° C. Then, RNA was isolated by phenol:chloroform extraction and ethanol precipitation. The ^32P-labeled transcripts were then analyzed on a 1% formaldehyde agarose gel which was subsequently washed with H2O, dried, and analyzed with a phosphoimager.

[2] = tested on: newly synthesized HCV RNA; experiment: 3H labeling of newly synthesized HCV RNA in SgPC2 cells; type: cell-based, hepatitis C virus; conditions: 6 h
Procedure: One million SgPC2 cells were pretreated with 2 μM BAPTA-AM or DMSO alone for 1 h and then treated with 0 or 100 μM H2O2 in the presence of 100 μCi of [^3H]uridine (35-50 Ci/mmol; MP Biomedicals, Irvine, Calif., USA) and 4 μg/ml actinomycin D (Sigma-Aldrich) for 5 to 6 h and then lysed for the RNA isolation. RNA was analyzed on a 1% formaldehyde agarose gel, which was then treated with 1 M sodium salicylate for 20-30 min for fluorography. The RNA gel was also stained with ethidium bromide to visualize rRNA bands to serve as loading controls.

[3] = tested on: subgenomic HCV replicon of genotype 1b; experiment: microbe, parasite or virus in culture; type: cell-based, hepatitis C virus
Procedure: Huh7 human hepatoma cells were cultured in Dulbecco's modified Eagle medium (DMEM; Invitrogen, Carlsbad, Calif., USA) supplemented with 10% fetal bovine serum (FBS; Invitrogen), 100 units/ml of penicillin, and 100 μg/ml of streptomycin in a 5% CO2 incubator. SgPC2 cells are G418-selected, pooled Huh7 cell clones that support the continuous replication of a subgenomic HCV replicon of genotype 1b and [29] (GenBank Accession No. AJ242652) that carries a S11791 adaptive mutation within the NS5A region. SgPC2 cells were maintained in the above medium supplemented with 0.5 mg/ml G418 (Invitrogen). G418 was removed at least 1 day before cell treatments.

[4] = target: T1, full-length NS5B (Hepatitis C virus genotype 1b, UniProt P26663); experiment: NS5B RdRp assay, de novo RNA synthesis in vitro; type: biochemical
T1 construct: Full-length NS5B protein was purified from Escherichia coli; made in house; host or cells: Escherichia coli
Excerpt: Full-length NS5B protein was purified from Escherichia coli, as previously described, and was used to catalyze de novo RNA synthesis in vitro [36].

[5] = tested on: JFH1 HCV (genotype 2a); type: cell-based, hepatitis C virus
Procedure: For viral RNA transfection, JFH1, JFH1/GND, and pSGR-JFH1-Luc were linearized with XbaI and used to synthesize the corresponding positive-sense stranded HCV RNA, as previously described (68). Then, 5×10^6 Huh7 cells were rinsed with Opti-Mem (Invitrogen), mixed briefly with 10-20 μg of the in vitro transcribed RNA in 0.4 ml of Opti-Mem, and then electroporated at 260 volts and 950 μF. […] Medium was changed daily. For infection with HCV, medium collected from JFH1 RNA-transfected cells were cleared of cell debris, as described, and added to naïve Huh7 cells. Typically, 1:2 or 3:2 ratio of the virus-containing medium and fresh cell culture medium were used.
JFH1/GND was used as the negative control. When L-buthionine S,R-sulfoximine (BSO) was used, the cells were pretreated with BSO for 16-24 hrs prior to the initiation of treatments.
Intracellular JFH1 HCV RNA content was also analyzed by qRT-PCR (Taqman), using ABI7300 real time PCR system and one step RT-PCR kit from Applied Biosystems. The forward primer was 5′-[…]-3′ (nt. 146 to 164) and the reverse primer, 5′-[…]-3′ (nt. 277 to 295). The probe was 5′[…]3′ (nt. 168 to 188) and was fluorogenically labeled with FAM (5′) and TAMRA (3′) (Biosearch Technologies, Novato, Calif.). Briefly, the reactions were carried out at 48° C. for 30 min for reverse transcription, followed by denaturation at 95° C. for 10 min, and then 50 cycles of 15 sec denaturation at 95° C. plus 60 sec of annealing and extension at 60° C. All samples were analyzed in duplicates or triplicates. In vitro RNA transcripts were used to generate standard curve to determine RNA copy numbers. The level of 18S rRNA was also analyzed, using manufacturer-optimized protocol, as the control.
To analyze the amount of the extracellular HCV RNA, medium from the cells were cleared by low-speed centrifugation and then, treated with RNaseA at room temperature. Then, the RNA samples were extracted, using Trizol LS Reagent (Invitrogen), and analyzed for HCV RNA content by qRT-PCR.

[6] = tested on: intracellular calcium concentration ([Ca^2+]i); experiment: [Ca^2+]i measurement with Indo-1 AM in SgPC2 cells; type: cell-based, human; conditions: for change in [Ca^2+]i: SgPC2 cells
Procedure: Briefly, on the day of the experiment, cells were washed in Krebs-Ringer phosphate buffer (KRPH; pH 7.4, containing 1.0 mM MgSO4, 1.3 mM CaCl2, 10 mM Hepes, 5 mM glucose, 125 mM NaCl, 5 mM KCl, and 10 mM sodium phosphate) and subsequently loaded with 10-20 μM Indo-1 AM (70 μl/coverslip; Molecular Probes, Inc., Eugene, Oreg., USA) containing 10 μM probenecid (Molecular Probes) for 30 min at 37° C. The attached cells were washed and bathed in KRPH/probenecid at 4° C. or room temperature until further analysis. Then, coverslips were individually submerged into KRPH and preequilibrated inside the […] fluorimeter (Hitachi) in darkness for 3 min, and [Ca^2+]i was monitored continuously at 37° C., with excitation at […] and emission at 400 and 450 nm. H2O2 and other agents were injected at different time points, as indicated under Results. [Ca^2+]i was calculated as described. Rmax was determined by adding 8-16 μM digitonin and Rmin with 10 mM ethylene glycol-bis(β-aminoethyl)-N,N,N'-tetraacetic acid (EGTA). […] The baseline, which represented unstimulated cells scanned over time, was plotted along with other measurements or subtracted from the other plots. Cells were serum-depleted, 1 day before the experiment, by incubating them overnight in DMEM plus 0.5% FBS. […] Then, CaCl2 was added before determining the Rmax for each run.

[7] = tested on: SgPC2 cells; conditions: JC-1 and annexin V-FITC staining
Procedure: Mitochondrial membrane potential was measured with JC1, using a Guava cytometer (Guava Technologies, Inc.). Apoptosis was also monitored with annexin V-FITC, with a 96-Nexin kit from Guava Technologies, Inc.

[8] = tested on: IP3
[9] = tested on: SgPC2 cells
Procedure: Intracellular GSH concentration was determined using a GSH recycling assay and expressed as nmol/mg protein. ATP level was measured using the Somatic Cell ATP assay kit from Sigma-Aldrich, as previously described. Protein level was determined with a bicinchoninic acid kit (Pierce Biotechnology, Inc., Rockford, Ill., USA).

[10] = tested on: genomic HCV RNA; conditions: Huh7 cells transfected with genomic HCV RNA, H2O2 24 h
Procedure: Then, 5×10^6 Huh7 cells were rinsed with DMEM, mixed briefly with 10-20 μg of the subgenomic replicon RNA in 0.4 ml of DMEM, and then electroporated at 220 V and 975 μF. Then, 1 million cells were seeded onto 60-mm cell culture dishes in DMEM containing 10% FBS. Medium was changed daily and, after 2-4 days, the cells were preincubated with 1,2-bis(2-aminophenoxy)ethane-N,N,N′,N′-tetraacetic acid tetrakis acetoxymethyl ester (BAPTA-AM) or vehicle control alone for 1 h. Then, the cells were exposed to H2O2 for 24 h, and the amount of the HCV RNA was analyzed by Northern blot (see below).
Total RNA was extracted from cells, using Trizol reagent (Invitrogen), following the manufacturer's protocol. Five to 20 μg of RNA was then subjected to Northern blot analysis using a ^32P-labeled double-stranded DNA probe prepared from nt 3669 to nt 6016 of the subgenomic replicon. For these and all other experiments, RNA and protein bands were quantified with a phosphoimager (Cyclone; Perkin-Elmer) or by densitometry using SigmaScan (Jandel Scientific) or IS2000R (Kodak). The intensities of the bands of interest were normalized against the control glyceraldehyde-3-phosphate dehydrogenase (GAPDH) mRNA.

T1 sequence (P26663 2420-3010): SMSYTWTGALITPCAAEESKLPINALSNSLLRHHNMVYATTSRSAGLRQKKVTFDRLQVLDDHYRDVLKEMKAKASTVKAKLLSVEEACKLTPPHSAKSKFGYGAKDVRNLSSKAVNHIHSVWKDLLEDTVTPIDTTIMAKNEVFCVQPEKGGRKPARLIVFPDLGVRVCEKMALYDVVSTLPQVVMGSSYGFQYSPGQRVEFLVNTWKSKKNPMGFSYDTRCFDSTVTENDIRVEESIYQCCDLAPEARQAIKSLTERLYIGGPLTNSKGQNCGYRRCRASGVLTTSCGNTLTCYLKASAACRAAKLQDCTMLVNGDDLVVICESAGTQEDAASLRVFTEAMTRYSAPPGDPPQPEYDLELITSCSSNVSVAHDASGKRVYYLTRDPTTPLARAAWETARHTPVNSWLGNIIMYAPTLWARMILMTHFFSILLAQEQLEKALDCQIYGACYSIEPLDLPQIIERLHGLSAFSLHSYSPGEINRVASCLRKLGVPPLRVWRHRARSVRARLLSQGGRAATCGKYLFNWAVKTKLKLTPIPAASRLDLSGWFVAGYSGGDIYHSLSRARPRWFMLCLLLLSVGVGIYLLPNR

Compound: CC(=O)OCOC(=O)CN(CC(=O)OCOC(C)=O)c1ccccc1OCCOc1ccccc1N(CC(=O)OCOC(C)=O)CC(=O)OCOC(C)=O [BAPTA-AM, 1,2-bis(2-aminophenoxy)ethane-N,N,N′-tetraacetic acid tetrakis acetoxymethyl ester]
- effect on the suppression of in vitro HCV replication by H2O2 [1]: removed this suppression at both time points tested
- effect on the suppression of HCV RNA replication by H2O2 ([3H]uridine) ([2]; 2 μM BAPTA-AM pretreatment): completely removed the suppression
- amount of HCV RNA synthesized ([3H]uridine, actinomycin D) [2]: no significant effect
- effect on the suppression of HCV RNA by GO ([3]; SgPC2 cells, GO 24 h, 130-200 U/ml catalase or 2 μM BAPTA-AM): alleviate the suppressive effect of GO

Compound: [Ca+2].[Cl-].[Cl-] [CaCl2]
- in vitro HCV RNA replication, agent added directly to the cytoplasmic lysates ([1]; added to untreated lysates before assay): could decrease
- in vitro de novo RNA synthesis by NS5B ([4]; 0.1 and 1 μM): only marginally suppressed
- NS5B polymerase activity ([4]; higher concentrations): enhanced the polymerase activity

Compound: c1ccc2c(c1)[I+]c1ccccc1-2 [DPI, Diphenylene Iodonium, reference compound]
- effect on HCV RNA level / replication [3]: significantly elevated

Compound: N[C@@H](CCC(=O)N[C@@H](CS)C(=O)NCC(=O)O)C(=O)O [GSH, glutathione, reference compound]
- restoration of HCV RNA levels suppressed by BSO [5]: not able to restore HCV replication

Compound: OO [H2O2, Hydrogen peroxide]
- AUC of [Ca^2+]i elevation ([6]; 100 μM H2O2, with BAPTA (2 μM BAPTA-AM pretreatment)): 128.4±82.3 Ca^2+/min
- AUC of [Ca^2+]i elevation ([6]; 100 μM H2O2, without BAPTA): 935.9±58.9 Ca^2+/min
- TG-induced calcium elevation after H2O2 pretreatment, % of control ([6]; H2O2 pretreatment 13 min, no extracellular calcium): 9.2±2.6%
- change in [Ca^2+]i [6]: gradual rise
- AUC of peroxide-induced calcium elevation ([6]; with 1.3 mM extracellular calcium): 1278.5±109.5 Ca^2+/min
- AUC of peroxide-induced calcium elevation ([6]; without extracellular calcium): 1105.1±238.1 Ca^2+/min
- intracellular and extracellular HCV RNA levels [5]: significantly decreased
- mitochondrial membrane potential or apoptosis [7]: no significant effect
- inositol 1,3-triphosphate (IP3) level [8]: did not increase
- total ATP content, % of untreated control ([9]; 30 min of treatment): 125.4±0.3%
- total ATP content, % of untreated control ([9]; 24 h of treatment): 97.3±8.25%
- amount of HCV RNA synthesized ([3H]uridine, actinomycin D) [2]: significantly decreased
- genomic HCV RNA, % of untreated control [10]: 34.0±4.0%
- HCV RNA (normalized to GAPDH mRNA), % of untreated control [3]: 36.8±16.6%
- effect on HCV RNA replication after 30 min of treatment [3]: significant suppression
- suppression of HCV RNA level compared with IFN-γ [3]: as effective as 100 to 2500 U/ml IFN-γ
- IC50 ([3]; Hepatitis C virus, 24 h, read-out: IC50 of suppression of HCV RNA level): ~25 µM

Compound: C/C=C(/C)C(=O)O[C@H]1C(C)=C2[C@H]([C@@H]1OC(=O)CCCCCCC)[C@@](C)(OC(C)=O)C[C@H](OC(=O)CCC)[C@@]1(O)[C@H]2OC(=O)[C@@]1(C)O [TG, thapsigargin, reference compound]
- activity at 0.4 µM ([6]; Homo sapiens, 400 nM TG pretreatment 10 min, no extracellular calcium, read-out: peroxide-induced calcium elevation after TG pretreatment, % of control): 58.3 ± 8.4%
- change in [Ca^2+]i [6]: transient rise
- AUC of TG-induced calcium response in control cells ([6]; no extracellular calcium, no H2O2 pretreatment): 772.3±189.3 Ca^2+/min

Compound: C[C@H](CCC(=O)O)C[C@H](C)C[C@H](C)C(=O)/C=C(\O)[C@H](C)C[C@H](C)C/C=C/[C@@H](C)[C@@H](O)[C@@H](C)[C@@H](O)C[C@@H]1CC[C@@](C)([C@H]2CC[C@@](C)([C@@H](C)O)O2)O1 [ionomycin]
- effect on the suppression of in vitro HCV replication by H2O2 [1]: significantly alleviated

Compound: N.N.N.N.N.N.N.N.N.N.N.N.N.N.[Cl-].[Cl-].[Cl-].[Cl-].[Cl-].[Cl-].[O-2].[O-2].[Ru+3].[Ru+3].[Ru+4] [ruthenium red, reference compound]
- basal calcium or magnitude/kinetics of the peroxide-induced calcium elevation [6]: no effect

Compound: cyclosporin A [reference compound]
- basal calcium or magnitude/kinetics of the peroxide-induced calcium elevation [6]: no effect

From patent US20090123447A1, “COMPOSITIONS AND METHODS TO INHIBIT RNA VIRAL REPRODUCTION” (priority 2007, published 2009)
